The values that follow are results of earlier work, collected in patent US7601427B2, “Curable composition, cured film, antireflection film, polarizing plate and liquid crystal display” (Fujifilm Corporation, priority 2005, dated 2009).

The conditions of the data set: pKa of conjugate acid, aqueous solution, from Kagaku Binran.

For the molecule `CN(C)CCO` [b-17, N,N′-Dimethyl-2-aminoethanol], the pKa (as a rule, the negative logarithm of the acid dissociation constant) is reported as 9.5.
